Measured values: article PMC9284491 (Nature Communications, 2022)
“Also recorded” adds a separate entry of the source. Like-named read-outs stand apart in the source and are kept apart here.

Columns and labels:
Ki67 = test: Paired tumor biopsy IHC, Ki67 positive cells; format: in vivo, human; settings: cycle 2, day 28; n = 7; range −30 to +30%
Procedure: Staining was evaluated in tumor cells only.
Results were analyzed using descriptive statistics.

[1] = Amcenestrant plasma pharmacokinetics (LC-MS/MS, non-compartmental analysis); format: in vivo, human; settings: for AUC(0-t) / Cmax / Tmax: human, plasma, oral
Procedure: To evaluate pharmacokinetics in Part A, venous blood samples were collected pre-dose and at regular intervals on cycle 1, day 1 (up to 48 h), on day 3 (up to 24 h), and on day 22 (up to 24 h). […] The validated range was 5 ng/mL to 5000 ng/mL.
In Part B, venous blood samples were collected pre-dose and at regular intervals on cycle 1, day 1 (up to 24 h), and on day 22 (up to 24 h).
NCA was performed using Phoenix® software.

[2] = set-up: method as in PMID 31721572; settings: preclinical; cited from earlier work
[3] = 24 h urine fraction, renal elimination of amcenestrant; format: in vivo, human; settings: Part B, QD administration
[4] = Dose-limiting toxicities, MTD and RP2D in dose escalation; format: in vivo
Procedure: During dose escalation, treatment was initiated on day 1 in the fasting state in cohorts starting at a dose of 20 mg orally QD, escalating in subsequent cohorts to planned doses of 50–600 mg. For all cohorts, treatment was omitted on day 2, was administered on day 3 after a moderate fat breakfast, and was administered from day 4 in the fasting state. Dose escalation proceeded based on the occurrence of DLT together with target saturation by ^18F-FES PET/CT scans[45] and pharmacokinetic parameters during the first 28-day cycle, and according to a 3 + 3 design. […] During dose expansion, patients were treated at the RP2D. Patients were treated until disease progression, unacceptable toxicity, withdrawal of patient consent, or other reasons determined by the investigator (poor compliance with the protocol or intercurrent illness). […]
Analysis populations and associated statistical methods. […] Results were analyzed using descriptive statistics. […]

[5] = test system: ER+/HER2− advanced breast cancer; test: Antitumor activity per RECIST v1.1 (ORR, CBR, best overall response); format: in vivo, human; settings: Part A, local review, n = 16
CYP3A = test: 4β-hydroxycholesterol ratio, induction/inhibition effect on CYP3A; format: in vivo, human; settings: ≥200 mg QD
ER = test system: ER; set-up: method as in PMID 31721572; settings: in vitro, preclinical, cited from earlier work
[6] = Part A, repeated QD, Cycle 1 Day 22, fasting, 20 mg, N 3
[7] = Part A, repeated QD, Cycle 1 Day 22, fasting, 150 mg, N 2
[8] = Part A, repeated QD, Cycle 1 Day 22, fasting, 200 mg, N 3
[9] = Part A, repeated QD, Cycle 1 Day 22, fasting, 400 mg, N 3
[10] = Part A, repeated QD, Cycle 1 Day 22, fasting, 600 mg, N 3
[11] = Part B, 400 mg QD, Day 22, N 13

**Q.** With `O=C(O)c1ccc2c(c1)CCCC(c1ccc(Cl)cc1Cl)=C2c1ccc(O[C@H]2CCN(CCCF)C2)cc1` [amcenestrant, 6-(2,4-Dichlorophenyl)−5-[4-[(3S)−1-(3-fluoropropyl)pyrrolidin-3-yl]oxyphenyl]−8,9-dihydro-7H-benzo[7]annulene-2-carboxylic acid] as the molecule, how does the “median change from screening in percentage of Ki67 positive cells” value (Ki67) read?
**A.** −8%

**Q.** What about the “total variability of exposure” value ([1]; 400 mg dose) of the same molecule?
**A.** < 40%

**Q.** And the “dose proportionality of exposure” value ([1]; 20–600 mg QD, single or multiple administrations)?
**A.** did not deviate significantly from dose proportionality; also recorded: exposure increased proportionally with doses up to 600 mg

**Q.** What about the “accumulation on day 22” value ([1]; Part A, doses ≥400 mg QD) of the same molecule?
**A.** No accumulation was observed

**Q.** And the “delay of median tmax by food” value ([1]; Part A, moderate fat breakfast)?
**A.** ≈ 1 h

**Q.** What about the “food effect on exposure” value ([1]; Part A, moderate fat breakfast) of the same molecule?
**A.** modestly increased exposure

**Q.** What about the “CLss/F, Geometric mean (CV%)” value [1, 6] of the same molecule?
**A.** 14.8 (75.8) L/h

**Q.** And the “CLss/F, Mean ± SD” value [1, 6]?
**A.** 18.0 ± 13.7 L/h

**Q.** And the “Ctrough, Mean ± SD” value [1, 6]?
**A.** 0.0126 ± 0.0136 µg/mL

**Q.** And the “CLss/F, Geometric mean (CV%)” value [1, 7]?
**A.** 9.99 (46.3) L/h

**Q.** And the “CLss/F, Mean ± SD” value [1, 7]?
**A.** 10.6 ± 4.89 L/h

**Q.** And the “Ctrough, Geometric mean (CV%)” value [1, 7]?
**A.** 134 (15.7) ng/mL

**Q.** What about the “Ctrough, Mean ± SD” value [1, 7] of the same molecule?
**A.** 0.135 ± 0.0212 µg/mL

**Q.** What about the “CLss/F, Geometric mean (CV%)” value [1, 8] of the same molecule?
**A.** 14.9 (28.0) L/h

**Q.** And the “CLss/F, Mean ± SD” value [1, 8]?
**A.** 15.3 ± 4.30 L/h

**Q.** And the “Ctrough, Geometric mean (CV%)” value [1, 8]?
**A.** 115 (73.0) ng/mL

**Q.** And the “Ctrough, Mean ± SD” value [1, 8]?
**A.** 0.14 ± 0.102 µg/mL

**Q.** And the “CLss/F, Geometric mean (CV%)” value [1, 9]?
**A.** 13.5 (95.7) L/h

**Q.** What about the “CLss/F, Mean ± SD” value [1, 9] of the same molecule?
**A.** 18.1 ± 17.4 L/h

**Q.** What about the “Ctrough, Geometric mean (CV%)” value [1, 9] of the same molecule?
**A.** 245 (79.3) ng/mL

**Q.** And the “Ctrough, Mean ± SD” value [1, 9]?
**A.** 0.397 ± 0.315 µg/mL

**Q.** What about the “CLss/F, Geometric mean (CV%)” value [1, 10] of the same molecule?
**A.** 14.4 (26.9) L/h

**Q.** And the “CLss/F, Mean ± SD” value [1, 10]?
**A.** 14.7 ± 3.96 L/h

**Q.** And the “Cmax, Geometric mean (CV%)” value [1, 10]?
**A.** 5510 (17.3) ng/mL

**Q.** And the “Ctrough, Geometric mean (CV%)” value [1, 10]?
**A.** 350 (88.2) ng/mL

**Q.** And the “Ctrough, Mean ± SD” value [1, 10]?
**A.** 0.449 ± 0.396 µg/mL

**Q.** And the “Cmax, Geometric mean (CV%)” value ([1]; Part B, 400 mg QD, Day 1, N 16)?
**A.** 5460 (46.8) ng/mL

**Q.** And the “Tlag, Median” value ([1]; Part B, 400 mg QD, Day 1, N 16)?
**A.** 0 h

**Q.** What about the “CLss/F, Geometric mean (CV%)” value [1, 11] of the same molecule?
**A.** 9.90 (41.0) L/h

**Q.** And the “CLss/F, Mean ± SD” value [1, 11]?
**A.** 10.6 ± 4.35 L/h

**Q.** And the “apparent total clearance from plasma at steady state (CLss/F)” value ([1]; Part B, 400 mg QD, day 22)?
**A.** 10.6 L/h

**Q.** And the “coefficient of variation for AUC0-24h” value ([1]; Part B, 400 mg QD, day 22)?
**A.** 37.5%

**Q.** What about the “coefficient of variation for Cmax” value ([1]; Part B, 400 mg QD, day 22) of the same molecule?
**A.** 28.0%

**Q.** What about the AUC(0-t) ([1]; 400 mg, Part B, 400 mg QD, Day 1, N 16, read-out: AUC0-24, Geometric mean (CV%)) of the same molecule?
**A.** 44.8 µg·h/mL

**Q.** And the AUC(0-t) ([1]; 400 mg, Part B, 400 mg QD, Day 1, N 16, read-out: AUC0-24, Mean ± SD)?
**A.** 50.9 ± 26 µg·h/mL

**Q.** And the Cmax ([1]; 400 mg, Part B, 400 mg QD, Day 1, N 16, read-out: Cmax, Mean ± SD)?
**A.** 6.02 ± 2.81 µg/mL

**Q.** What about the AUC(0-t) ([1]; 400 mg, Part B, 400 mg QD, Day 22, N 13, read-out: AUC0-24, Mean ± SD) of the same molecule?
**A.** 43.2 ± 16.2 µg·h/mL

**Q.** And the Cmax ([1]; 400 mg, Part B, 400 mg QD, Day 22, N 13, read-out: Cmax, Geometric mean (CV%))?
**A.** 4.22 µg/mL

**Q.** And the Cmax ([1]; 400 mg, Part B, 400 mg QD, Day 22, N 13, read-out: Cmax, Mean ± SD)?
**A.** 4.38 ± 1.23 µg/mL

**Q.** What about the Tmax ([1]; Part A, single dose day 1, starting from the 150-mg dose, read-out: median time to maximum concentration [tmax]) of the same molecule?
**A.** ~3 h

**Q.** And the Tmax ([1]; Part B, 400 mg QD, Day 1, N 16, read-out: tmax, Median)?
**A.** 3.98 h

**Q.** And the metabolic stability [2]?
**A.** metabolically stable

**Q.** And the “amcenestrant excreted in urine over the 24-h interval” value [3]?
**A.** < 0.1 % of the administered dose

**Q.** What about the “maximum tolerated dose (MTD)” value ([4]; Part A, 20-600 mg QD) of the same molecule?
**A.** not reached

**Q.** What about the dose-limiting toxicities ([4]; in vivo) of the same molecule?
**A.** No dose-limiting toxicities occurred

**Q.** And the “objective response rate (ORR)” value [5]?
**A.** 6.3%

**Q.** What about the “stable disease (SD), patients” value [5] of the same molecule?
**A.** 50%

**Q.** And the “effect on CYP3A liver enzyme activity” value (CYP3A)?
**A.** can induce cytochrome P450 (CYP) 3 A liver enzyme activity

**Q.** What about the ER degradation efficacy (ER) of the same molecule?
**A.** 98%

**Q.** And the EC50 (ER; read-out: ER degradation potency)?
**A.** 0.2 nM
